What was measured:
Sh2b SH2 domain = Sh2b SH2 domain (Homo sapiens, UniProt Q9NRF2); assay: SPOT peptide array; type: binding; conditions: GST-SH2 0.25 μM
Outline: (§1)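 Semi-quantitative binding scored against the membrane average: positive above 3× mean, negative below mean. Probe was a GST–SH2 fusion on SPOT arrays of pTyr 11-mers, detected with anti-GST antibody plus near-infrared secondary.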

Src SH2 domain [1] = target: T1, Src SH2 domain (Homo sapiens, UniProt P12931); assay: SPOT peptide array; type: binding; conditions: GST-SH2 0.25 μM, membrane-bound peptide, 1 mM DTT, LiCor read-out
Outline: as §1

Lck SH2 domain [2] = assay: SPOT peptide array; type: binding; conditions: GST-SH2 0.25 μM, membrane-bound peptide, 1 mM DTT, LiCor read-out
panel of 50 SH2 domains = assay: SPOT peptide array probed with each of 50 GST-SH2 domains; type: binding; conditions: SH2 domains with intensity >3X array mean; GST-SH2 0.25 μM, 1 mM DTT
Outline: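 Each GST-fused SH2 domain was overlaid on 192 membrane-synthesized pTyr peptides (11-mers, 4 N-terminal and 6 C-terminal flanking residues) and read with anti-GST and near-infrared secondary antibodies. Binding called relative to membrane mean intensity (>3× positive, <1× negative); GST-only probes defined nonspecific peptides.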

Src SH2 domain [3] = target: T1, Src SH2 domain; parameters: method as in 2 sources, ref [19] = [19]; PMID 7680959; doi:10.1016/0092-8674(93)90404-e; Songyang Z Shoelson SE Chaudhuri M Gish G Pawson T Haser WG King F Roberts T Ratnofsky S Lechleider RJ SH2 domains recognize specific phosphopeptide sequences Cell 1993 72 767 778 7680959 10.1016/0092 ||| ref [119, 121] = [119]; PMID 9032297; doi:10.1128/mcb.17.3.1702; Schlaepfer DD Broome MA Hunter T Fibronectin-stimulated signaling from a focal adhesion kinase-c-Src complex: involvement of the Grb2, p130cas, and Nck adaptor proteins Mol Cell Biol 1997 17 1702 1713 || [121]; PMID 16245368; doi:10.1002/jmr.755; Nasertorabi F Tars K Becherer K Kodandapani R Liljas L Vuori K Ely KR Molecular basis for regulation of Src by the docking protein p130Cas J Mol Recognit 2006 19 30 38 16245368 10.1002/jmr.755; conditions: read-out: Affinity (KD); cited from earlier work
Lck SH2 domain [4] = target: Lck SH2 domain; parameters: method as in PMID 11278862; conditions: read-out: Affinity (KD); cited from earlier work
PI3K1_N SH2 domain [5] = target: T2, PI3K1_N SH2 domain (Homo sapiens, UniProt P27986); assay: SPOT peptide array; type: binding; conditions: GST-SH2 0.25 μM, membrane-bound peptide, 1 mM DTT, LiCor read-out
T2 sequence (P27986 333-428 limits assumed): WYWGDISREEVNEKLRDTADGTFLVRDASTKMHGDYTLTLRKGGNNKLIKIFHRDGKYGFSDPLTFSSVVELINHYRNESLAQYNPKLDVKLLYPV
Outline: as §1

Plcγ-C SH2 domain [6] = assay: SPOT peptide array; type: binding; conditions: GST-SH2 0.25 μM, membrane-bound peptide, 1 mM DTT, LiCor read-out
Outline: as §1

Plcγ-N SH2 domain [7] = assay: SPOT peptide array; type: binding; conditions: GST-SH2 0.25 μM, membrane-bound peptide, 1 mM DTT, LiCor read-out
Outline: as §1

Vav1 SH2 domain = Vav1 SH2 domain (Homo sapiens, UniProt P15498); assay: SPOT peptide array; type: binding; conditions: GST-SH2 0.25 μM, membrane-bound peptide, 1 mM DTT, LiCor read-out
Sequence of Vav1 SH2 domain (P15498 671-765 limits assumed): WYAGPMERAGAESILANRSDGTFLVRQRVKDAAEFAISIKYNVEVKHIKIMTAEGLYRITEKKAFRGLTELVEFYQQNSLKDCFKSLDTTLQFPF
Outline: as §1

Plcγ-N SH2 domain [8] = target: Plcγ-N SH2 domain; parameters: method as in PMID 9422724; conditions: tandem SH2 domains of PLCG1 against tandem phospho-peptide of PDGFRβ Y1009/Y1021; read-out: Affinity (KD); cited from earlier work
Plcγ-C SH2 domain [9] = target: Plcγ-C SH2 domain; parameters: method as in 2 sources, one per row (each row's own in cited_ref): ref 95-97 = [95]; PMID 9422724; doi:10.1074/jbc.273.2.729; Ottinger EA Botfield MC Shoelson SE Tandem SH2 domains confer high specificity in tyrosine kinase signaling J Biol Chem 1998 273 729 735 9422724 10.1074/jbc.273.2.729 || [96]; PMID 8181064; doi:10.1016/0092-8674(94)90160-0; Pascal SM Singer AU Gish G Yamazaki T Shoelson SE Pawson T Kay LE Forman-Kay JD Nuclear magnetic resonance structure of an SH2 domain of phospholipase C-gamma 1 complexed with a high affinity binding || [97]; PMID 15641795; doi:10.1021/bi048641k; Finerty PJ Jr Mittermaier AK Muhandiram R Kay LE Forman-Kay JD NMR dynamics-derived insights into the binding properties of a peptide interacting with an SH2 domain Biochemistry 2005 44 694 703 156417 ||| ref [98] = [98]; PMID 11526507; doi:10.1038/sj.onc.1204654; Malabarba MG Milia E Faretta M Zamponi R Pelicci PG Di Fiore PP A repertoire library that allows the selection of synthetic SH2s with altered binding specificities Oncogene 2001 20 5186 5194 11526507; conditions: tandem SH2 domains of PLCG1 against tandem phospho-peptide of PDGFRβ Y1009/Y1021; read-out: Affinity (KD); cited from earlier work
PI3K1_N SH2 domain [10] = target: T2, PI3K1_N SH2 domain; parameters: method as in PMID 8384875; conditions: cited from earlier work
Sh2d1b SH2 domain = Sh2d1b SH2 domain (Homo sapiens, UniProt O14796); assay: SPOT peptide array; type: binding; conditions: GST-SH2 0.25 μM, membrane-bound peptide, 1 mM DTT, LiCor read-out
Sequence of Sh2d1b SH2 domain (O14796 5-101 limits assumed): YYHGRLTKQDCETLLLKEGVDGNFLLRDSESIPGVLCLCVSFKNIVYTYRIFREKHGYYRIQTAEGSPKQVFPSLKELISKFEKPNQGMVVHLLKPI

Shc1 SH2 domain = target: T3, Shc1 SH2 domain (Homo sapiens, UniProt P29353); parameters: method as in PMID 7544002; conditions: read-out: Affinity (KD); cited from earlier work
T3 sequence (P29353 488-579 limits assumed): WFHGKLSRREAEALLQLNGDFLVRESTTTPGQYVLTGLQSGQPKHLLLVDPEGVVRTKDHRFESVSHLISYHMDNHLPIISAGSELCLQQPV

THDLYMIMREA [11-mer peptide, FGFR3 (Y724)]
Array positive (Sh2b SH2 domain; membrane-bound peptide, 1 mM DTT, LiCor read-out): No (Peptide spots with average intensity values between 1X-3X the array mean were defined as ‘indeterminate’. Those with intensities below 1X mean were defined as array negative) | Peptide array intensity (X mean) (Sh2b SH2 domain; spot intensity as factor of array mean): 0.44 X Mean

AEPQpYEEIPIY [11-mer phosphotyrosine control peptide, Middle T-antigen (Y323), reference compound]
Array positive (Src SH2 domain [1]): Yes (Array-positive binding was ascribed to interactions with intensities greater than three times the array mean) | Array positive (Lck SH2 domain [2]): Yes (Array-positive binding was ascribed to interactions with intensities greater than three times the array mean) | Other SH2 domains bound (additional array-positive SH2 domains) (panel of 50 SH2 domains): Blk, Brk, Fer, Fgr, Hck, Lyn, Nck1, Shc1, Yes | Kd (Src SH2 domain [3]): 550 to 800 nM | Kd (Lck SH2 domain [4]): 1300 ± 200 nM

ADNDpYIIPLPD [11-mer phosphotyrosine control peptide, PDGFRb (Y1021), reference compound]
Array positive (PI3K1_N SH2 domain [5]): No (Peptide spots with average intensity values between 1X-3X the array mean were defined as ‘indeterminate’. Those with intensities below 1X mean were defined as array negative) | Array positive (Plcγ-C SH2 domain [6]): Yes (Array-positive binding was ascribed to interactions with intensities greater than three times the array mean) | Array positive (Plcγ-N SH2 domain [7]): Yes (Array-positive binding was ascribed to interactions with intensities greater than three times the array mean) | Array positive (Vav1 SH2 domain): Yes (Array-positive binding was ascribed to interactions with intensities greater than three times the array mean) | Other SH2 domains bound (additional array-positive SH2 domains) (panel of 50 SH2 domains): Brk | Kd (Plcγ-N SH2 domain [8]): 0.65 to 2.2 nM | Kd (Plcγ-C SH2 domain [9]): 0.65 to 2.2 nM | Relative affinity (ID50) (PI3K1_N SH2 domain [10]): 45 µM

SLTIpYAQVQKA [11-mer phosphotyrosine control peptide, SLAM (Y280)]
Array positive (Sh2d1b SH2 domain): Yes (Array-positive binding was ascribed to interactions with intensities greater than three times the array mean)

HDGLpYQGLSTA (HDGLYQGLSTA) [11-mer phosphotyrosine control peptide, CD150 (Y142)]
Kd (Shc1 SH2 domain): 50 µM

— PMC3514216, “SRC Homology 2 Domain Binding Sites in Insulin, IGF-1 and FGF receptor mediated signaling networks reveal an extensive potential interactome” (Cell Communication and Signaling : CCS, 2012)
